Earlier results in patent US20070110685A1, “Combination therapy for the treatment of immunoinflammatory disorders” (priority 2005, published 2007).

- absorption after oral administration: absorbed rapidly and completely
Compound: CO[C@H]1C[C@@H]2CC[C@@H](C)[C@@](O)(O2)C(=O)C(=O)N2CCCC[C@H]2C(=O)O[C@H]([C@H](C)C[C@@H]2CC[C@@H](O)[C@H](OC)C2)CC(=O)[C@H](C)/C=C(\C)[C@@H](O)[C@@H](OC)C(=O)[C@H](C)C[C@H](C)/C=C/C=C/C=C/1C [Rapamycin]
